Laboratory results published in US20260101892A1, “METHOD TO INHIBIT PROLIFERATION OF A PHYTOPATHOGEN ON PLANTS AND COMPOSITIONS USED FOR THIS PURPOSE” (CYSBIO APS, priority 2022, published 2026).
Like-named read-outs stand apart in the source and are kept apart here.

Columns and labels:
[1] = system: powdery mildew (Podosphaera aphanis); experiment: Powdery mildew in strawberries, controlled environment trial; conditions: crop Strawberries
Protocol: The efficacy was evaluated as % area of leaves that were infected with disease based on evaluation of 50 leaves from each plant. The evaluation was performed 30 days after the first treatment and 10 days after the last treatment.
Five different treatments were applied; 1) an untreated control, 2) zosteric acid at 3%, 3) zosteric acid at 6%, 4) zosteric acid at 9%, 5) Karma at 3 kg/ha. […] Four treatment applications were performed at day 0, 7, 14, and 21 respectively. Prior to each application the infection and phytotoxicity of the plants were evaluated and scored.

[2] = system: European grapes (Vitis vinifera); experiment: Phytotoxicity evaluation in the grapevine downy mildew trial
Penicillium citrinum = conditions: Mold on citrus fruits; N/A (In vitro); Villa et al 2010; cited from earlier work
Penicillium digitatum = experiment: Post-harvest preservation of lemons; format: in vivo
Protocol: (§1) To investigate if zosteric acid and/or coumaric acid can protect fruit and vegetables against post-harvest infection with different fungi, zosteric and coumaric acids fungicidal effect was tested in capsicums and lemons infected with Alternaria alternata and Penicillium digitatum, respectively. The tests were performed by acquiring the relevant fruit and vegetables from the local supermarket. Both fruit and vegetables were bought as organic produce to ensure a minimum of pesticides had already been applied. […] Each application treatment was performed in triplicate on three separate pieces of produce. After treatment, the produce was allowed to dry in a sterile laminar flow cabinet followed by a second round of application and drying. The produce was then inoculated with the relevant fungal spores using a grafting stick. […] The inoculated produce was subsequently placed in […] plastic bags to prevent contamination with other organisms and to prevent the produce from drying out due to air circulation in the incubator. The wrapped capsicums and lemons were placed at 10° C. and the fungal growth followed by measuring the diameter of the growth from the point of inoculation for 25 days.

[3] = system: Blumeria graminis f. sp. tritici; experiment: Powdery mildew in wheat; format: in vivo; conditions: crop Wheat
Magnaporthe grisea = conditions: Rice blast; crop Rice; Stanley 2002; cited from earlier work
pyronophora graminea = experiment: Seed dressing against barley stripe
Protocol: (§2) To investigate if zosteric acid can be applied as a seed dressing agent to prevent different seed borne fungal infections, the ability of zosteric acid to prevent infection of wheat and barley with the common bunt of wheat caused by tilletia caries and barley stribe, caused by pyronophora graminea was tested.
(§3) To investigate if zosteric acid can be applied as a seed dressing agent to prevent different seed borne fungal infections, the ability of zosteric acid to prevent infection of wheat and barley with the common bunt of wheat caused by tilletia caries and barley stribe, caused by pyronophora graminea) was tested.

[4] = system: late potato blight (Phytophtora infestans); format: in vivo, Phytophthora infestans; conditions: for reduction of pest severity: 5% zosteric acid and 0.3 L/ha BREAK THRU, vs untreated control
[5] = system: Colletotrichum lindemuthianum; conditions: Bean anthracnose; crop Bean; Stanley 2002; cited from earlier work
[6] = system: strawberries (Fragaria sp.); experiment: Phytotoxicity evaluation in the strawberry powdery mildew trial; format: in vivo; conditions: at concentrations that control disease
Alternaria alternata = experiment: Post-harvest preservation of capsicums; format: in vivo; conditions: capsicums sprayed twice, 10° C., followed 25 days, triplicate
Protocol: as §1

[7] = system: downy mildew in grapevine (plasmopara viticola); experiment: Downy mildew in grapevine, controlled environment trial, foliar spray
[8] = system: potatoes (Solanum tuberosum, variety Venezia); experiment: Phytotoxicity assessment in the potato blight climate chamber test; format: in vivo; conditions: throughout the trials (0.1%, 1%, 5% zosteric acid)
Protocol: The application was conducted with a Research Track Sprayer and three different concentrations of zosteric acid (0.1%, 1%, and 5%) were sprayed one day before pathogen inoculation and two different concentrations of zosteric acid (1% and 5%) were sprayed after inoculation as soon as the infection got visible. Plants were assessed for phytotoxicity and pest severity 0, 4, and 7 days after the curative application.

Puccinia striiformis = experiment: Yellow rust in wheat, greenhouse trial, contact fungicide; conditions: crop Wheat
Protocol: A greenhouse trial was conducted to investigate if zosteric acid could be applied as a contact fungicide to control yellow rust in wheat. Wheat was sowed in one-liter pots, with five replicates per treatment. 14 days after sowing, plants were sprayed with 150 L/ha of 10% zosteric acid with 0.1% Tween. For reference, an untreated control, a treatment with 0.1% Tween, and a treatment with a currently used standard fungicide treatment for yellow rust was also included in the test. One day after spraying of the plants, they were inoculated with Puccinia striiformis which is the causative agent of yellow rust. Plants were assessed for attack with yellow rust 13, 19 and 21 days after infection with yellow rust.

Septoria tritici = experiment: Septoria leaf blotch; format: in vivo
tilletia caries = experiment: Seed dressing against common bunt of wheat
Protocol: as §2, §3

Ustilago nuda = experiment: Loose smut of barley; format: in vivo; conditions: crop Barley
Cercospora beticola = experiment: Cercospora leaf spot disease in sugarbeet; format: in vivo; conditions: crop Beta vulgaris vulg. altissima / sugarbeet
Aspergillus niger = conditions: Common mold; N/A (In vitro); Villa et al 2010; cited from earlier work
Leptosphaeria maculans = experiment: Blackleg disease in winter rape; format: in vivo; conditions: crop Brassica napus / winter rape

O=C(O)/C=C/c1ccc(OS(=O)(=O)O)cc1 [zosteric acid]
zosteric acid effective (Yes/No) [1]: Yes
phytotoxicity ([2]; 1% zosteric acid, scored 13 days after application): < 0.5%
phytotoxicity ([2]; 5% treatment, Example 9 trial): 7%
phytotoxic effects ([2]; at the effective concentration, scored 13 days after application): does not have significant phytotoxic effects
phytotoxicity ([2]; high concentrations (>2%), scored 13 days after application): start to be phytotoxic
zosteric acid effective (Yes/No) (Penicillium citrinum): Yes
time after inoculation until P. digitatum growth was observed (Penicillium digitatum; lemons sprayed twice, 10° C., followed 25 days, triplicate): 19 days
replicates with P. digitatum growth at end of test period (Penicillium digitatum; lemons, day 25, three replicates): only a single replicate
zosteric acid effective (Yes/No) [3]: not effective and No
zosteric acid effective (Yes/No) (Magnaporthe grisea): Yes
zosteric acid effective (Yes/No) (pyronophora graminea; Barley stripe, crop Barley): Yes
reduction of percentage of infected plant ears compared to untreated control (pyronophora graminea; barley seeds treated with 0.1% zosteric acid): more than 2 fold
reduction of percentage of infected plant ears compared to untreated control (pyronophora graminea; barley seeds treated with 1% zosteric acid): more than 2 fold
reduction of pest severity ([4]; 0 days from the curative treatment): 7.8%
reduction of pest severity ([4]; 4 days from the curative treatment): 7.3%
reduction of pest severity ([4]; 7 days from the curative treatment): 6.6%
zosteric acid effective (Yes/No) ([4]; Potato blight, crop Solanum tuberosum / potato): highly effective and Yes
zosteric acid effective (Yes/No) [5]: Yes
phytotoxicity [6]: no phytotoxicity
time after inoculation until A. alternata growth was displayed (Alternaria alternata): 19 days
zosteric acid effective (Yes/No) ([7]; Downy mildew in wine, crop Vitis vinifera / European grape): highly effective and Yes
efficacy compared with positive control Funguran Progress (copper) ([7]; Example 9 trial): comparable to the positive control Funguran Progress
dose response of disease control ([7]; increasing doses of zosteric acid, scored 17 days after application): clear dose response
phytotoxic effects [8]: No phytotoxic effects were observed
zosteric acid effective (Yes/No) (Puccinia striiformis): effective and Yes
zosteric acid effective (Yes/No) (Septoria tritici): not effective and No
zosteric acid effective (Yes/No) (tilletia caries; Common bunt of wheat, crop Wheat): good efficacy and Yes
effect in combination with Redigo Pro (tilletia caries; protection against common bunt of wheat, seed dressing): strong synergistic effect
reduction of percentage of infected plant ears compared to untreated control (tilletia caries; wheat seeds treated with 0.1% zosteric acid): more than 2 fold
reduction of percentage of infected plant ears compared to untreated control (tilletia caries; wheat seeds treated with 1% zosteric acid): more than 2 fold
zosteric acid effective (Yes/No) (Ustilago nuda): no efficacy and No
zosteric acid effective (Yes/No) (Cercospora beticola): not effective and No
zosteric acid effective (Yes/No) (Aspergillus niger): Yes
zosteric acid effective (Yes/No) (Leptosphaeria maculans): not effective and No
